In ChEMBL document CHEMBL1201862, “PubChem BioAssay data set” (2004):
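Five concentrations, 48 hours, 96-well plates. GI50 = concentration required for 50% inhibition of growth.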 Calls of active or inactive are those of the source. Rule as the data show it: active = GI50 up to about 1.1 µM and inactive = higher.

What was measured:
Assay in all cases: NCI-60 cell line screen, 48 h
A498 = tested on: A498
ACHN = tested on: ACHN
CCRF-CEM = tested on: CCRF-CEM
COLO 205 = tested on: COLO 205
DU-145 = tested on: DU-145
EKVX = tested on: EKVX
HOP-62 = tested on: HOP-62
Hs-578T = tested on: Hs-578T
IGROV-1 = tested on: IGROV-1
KM12 = tested on: KM12
M14 = tested on: M14
MDA-MB-231 = tested on: MDA-MB-231
NCI-H23 = tested on: NCI-H23
OVCAR-3 = tested on: OVCAR-3
OVCAR-4 = tested on: OVCAR-4
SF-295 = tested on: SF-295
SF-539 = tested on: SF-539
SK-MEL-5 = tested on: SK-MEL-5
OVCAR-5 = tested on: OVCAR-5
BT-549 = tested on: BT-549

Structure (SMILES)	GI50 (A498)	GI50 (ACHN)	GI50 (CCRF-CEM)	GI50 (COLO 205)	GI50 (DU-145)	GI50 (EKVX)	GI50 (HOP-62)	GI50 (Hs-578T)	GI50 (IGROV-1)	GI50 (KM12)	GI50 (M14)	GI50 (MDA-MB-231)	GI50 (NCI-H23)	GI50 (OVCAR-3)	GI50 (OVCAR-4)	GI50 (SF-295)	GI50 (SF-539)	GI50 (SK-MEL-5)	GI50 (OVCAR-5)	GI50 (BT-549)
NCCN1CC2CCC(CC2)C1	> 10 µM (inactive)	> 10 µM (inactive)	> 10 µM (inactive)	> 10 µM (inactive)	> 10 µM (inactive)	> 10 µM (inactive)	> 10 µM (inactive)	> 10 µM (inactive)	> 10 µM (inactive)	> 10 µM (inactive)	> 10 µM (inactive)	> 10 µM (inactive)	> 10 µM (inactive)	> 10 µM (inactive)	> 10 µM (inactive)	> 10 µM (inactive)	> 10 µM (inactive)	> 10 µM (inactive)		
N#Cc1c(-c2ccco2)c2c(n(C3OC(CO)C(O)C(O)C3O)c1=S)CCCC2 (configuration not stated)	> 100 µM (inactive)	> 100 µM (inactive)	> 100 µM (inactive)	> 100 µM (inactive)	> 100 µM (inactive)	> 100 µM (inactive)	> 100 µM (inactive)	> 100 µM (inactive)	> 100 µM (inactive)	> 100 µM (inactive)	> 100 µM (inactive)	> 100 µM (inactive)	> 100 µM (inactive)	> 100 µM (inactive)	> 100 µM (inactive)	> 100 µM (inactive)	> 100 µM (inactive)	85.9 µM (inactive)	> 100 µM (inactive)	
CCc1c(C)c(C#N)c(=S)n(C2OC(CO)C(O)C(O)C2O)c1C (configuration not stated)	> 100 µM (inactive)	> 100 µM (inactive)	> 100 µM (inactive)	> 100 µM (inactive)	> 100 µM (inactive)	> 100 µM (inactive)	> 100 µM (inactive)		> 100 µM (inactive)	> 100 µM (inactive)	> 100 µM (inactive)	> 100 µM (inactive)	> 100 µM (inactive)	> 100 µM (inactive)	> 100 µM (inactive)	> 100 µM (inactive)	> 100 µM (inactive)	> 100 µM (inactive)	> 100 µM (inactive)	
CCOC(=O)C1C(=O)CC(C)(O)C(C(=O)OCC)C1c1ccc(O)c(OC)c1 (configuration not stated)	> 100 µM (inactive)	> 100 µM (inactive)	> 100 µM (inactive)	> 100 µM (inactive)	> 100 µM (inactive)	> 100 µM (inactive)	> 100 µM (inactive)		> 100 µM (inactive)	> 100 µM (inactive)		> 100 µM (inactive)	> 100 µM (inactive)	> 100 µM (inactive)	> 100 µM (inactive)	> 100 µM (inactive)		> 100 µM (inactive)	> 100 µM (inactive)	> 100 µM (inactive)
COC(=O)[C@@]12CC(C(C)C)[C@H]3CC(C(=O)C=C1OC)[C@H]32 (some centres not stated)	> 100 µM (inactive)	> 100 µM (inactive)	47.5 µM (inactive)	> 100 µM (inactive)		> 100 µM (inactive)	> 100 µM (inactive)		> 100 µM (inactive)	> 100 µM (inactive)	> 100 µM (inactive)		> 100 µM (inactive)	> 100 µM (inactive)	> 100 µM (inactive)	> 100 µM (inactive)	> 100 µM (inactive)	> 100 µM (inactive)	> 100 µM (inactive)	
CCOC(=O)/C(=C/NC(=S)Nc1c(CC)cccc1C(C)(C)C)C(=O)c1ccccc1	> 100 µM (inactive)	> 100 µM (inactive)	> 100 µM (inactive)	> 100 µM (inactive)	> 100 µM (inactive)	> 100 µM (inactive)	> 100 µM (inactive)	13.2 µM (inactive)	> 100 µM (inactive)	> 100 µM (inactive)	> 100 µM (inactive)	> 100 µM (inactive)	> 100 µM (inactive)		> 100 µM (inactive)	> 100 µM (inactive)	> 100 µM (inactive)	> 100 µM (inactive)	> 100 µM (inactive)	
CCCOc1ccc(-c2nc(-c3ccc(/N=C/c4ccc(N(CCOS(C)(=O)=O)CCOS(C)(=O)=O)cc4C)cc3)cs2)cc1	7.5 µM (inactive)	1.46 µM (inactive)	2.58 µM (inactive)	2.21 µM (inactive)	3.16 µM (inactive)	17.6 µM (inactive)	8 µM (inactive)	29.3 µM (inactive)	20 µM (inactive)	13.6 µM (inactive)	16.8 µM (inactive)	34 µM (inactive)	10.1 µM (inactive)	18.2 µM (inactive)	34.1 µM (inactive)	3.73 µM (inactive)	12.1 µM (inactive)	27 µM (inactive)	31.9 µM (inactive)	
COc1ccc(/C=N/n2c(Cc3ccc(Cl)cc3)n[nH]c2=O)cc1	39.3 µM (inactive)	45.1 µM (inactive)	> 100 µM (inactive)	32 µM (inactive)	30.3 µM (inactive)	30.1 µM (inactive)	15.2 µM (inactive)		16 µM (inactive)	> 100 µM (inactive)	45.7 µM (inactive)	8.93 µM (inactive)	22 µM (inactive)	> 100 µM (inactive)	> 100 µM (inactive)	19.8 µM (inactive)	22.1 µM (inactive)		29.5 µM (inactive)	32.4 µM (inactive)
O=C(c1cccc2cc(O)ccc12)c1cn(CCN2CCOCC2)c2ccccc12		33.7 µM (inactive)	4.06 µM (inactive)	45.7 µM (inactive)	30.1 µM (inactive)	28.1 µM (inactive)	22 µM (inactive)		20.3 µM (inactive)		20 µM (inactive)	19.5 µM (inactive)	33.3 µM (inactive)				> 100 µM (inactive)	40 µM (inactive)	29.5 µM (inactive)	23.4 µM (inactive)
CCCCCCCCCN1CCC(=O)C(C(=O)OC)C1 (configuration not stated)	19 µM (inactive)	8.93 µM (inactive)	10.1 µM (inactive)	15.1 µM (inactive)	15.1 µM (inactive)	15.5 µM (inactive)	16.9 µM (inactive)	17.1 µM (inactive)		3.08 µM (inactive)	15.4 µM (inactive)		2.96 µM (inactive)	15.5 µM (inactive)	2.29 µM (inactive)	17.3 µM (inactive)	18.2 µM (inactive)	14.2 µM (inactive)	15.3 µM (inactive)	
NC(=O)c1cc(C2OC(CO)C(O)C2O)nn1-c1ccc([N+](=O)[O-])cc1 (configuration not stated)	> 100 µM (inactive)	> 100 µM (inactive)	> 100 µM (inactive)	> 100 µM (inactive)		> 100 µM (inactive)	> 100 µM (inactive)		> 100 µM (inactive)	> 100 µM (inactive)	> 100 µM (inactive)		> 100 µM (inactive)	> 100 µM (inactive)	> 100 µM (inactive)	> 100 µM (inactive)	> 100 µM (inactive)	> 100 µM (inactive)	> 100 µM (inactive)	
N=CCCN(CCC=N)c1ccc(/C=C2\CN(NC(=O)c3ccc(Cl)cc3)C(c3ccccc3)=N2)cc1	> 100 µM (inactive)	> 100 µM (inactive)	> 100 µM (inactive)	> 100 µM (inactive)		> 100 µM (inactive)	> 100 µM (inactive)		> 100 µM (inactive)	> 100 µM (inactive)	> 100 µM (inactive)		> 100 µM (inactive)	> 100 µM (inactive)	> 100 µM (inactive)	> 100 µM (inactive)	> 100 µM (inactive)	> 100 µM (inactive)	> 100 µM (inactive)	
CC(=O)C1=CCC2c3[nH]c4ccccc4c3CCN2C1 (configuration not stated)	> 100 µM (inactive)	78 µM (inactive)	38.5 µM (inactive)	> 100 µM (inactive)		67.1 µM (inactive)	> 100 µM (inactive)		61.1 µM (inactive)	52.6 µM (inactive)	> 100 µM (inactive)		46.7 µM (inactive)	31.7 µM (inactive)	35.6 µM (inactive)	98.6 µM (inactive)	26.6 µM (inactive)	50 µM (inactive)	> 100 µM (inactive)	
CC1(C)[C@@H](Cn2ccc(=O)[nH]c2=O)CC[C@@]1(C)CO	> 100 µM (inactive)	> 100 µM (inactive)	> 100 µM (inactive)	> 100 µM (inactive)	> 100 µM (inactive)	> 100 µM (inactive)	> 100 µM (inactive)	> 100 µM (inactive)		> 100 µM (inactive)	> 100 µM (inactive)	> 100 µM (inactive)		81.5 µM (inactive)	> 100 µM (inactive)	> 100 µM (inactive)		> 100 µM (inactive)	> 100 µM (inactive)	
Oc1cc(-c2ccccc2)nc2ncccc12	> 100 µM (inactive)	0.446 µM (active)	0.0867 µM (active)	0.0855 µM (active)	0.298 µM (active)	> 100 µM (inactive)	1.15 µM (inactive)	0.16 µM (active)	0.2 µM (active)	0.0296 µM (active)	0.0853 µM (active)	0.418 µM (active)	0.203 µM (active)	0.145 µM (active)	15 µM (inactive)	0.0698 µM (active)	0.109 µM (active)	0.0778 µM (active)		
C[C@@H]1O[C@@H](O[C@H]2[C@H](Oc3cc(O)c4c(=O)cc(-c5ccc(O)cc5)oc4c3)O[C@H](CO)[C@@H](O)[C@@H]2O)[C@H](O)[C@H](O)[C@H]1O [RHOIFOLIN]	> 100 µM (inactive)	> 100 µM (inactive)	> 100 µM (inactive)	> 100 µM (inactive)		> 100 µM (inactive)	> 100 µM (inactive)		> 100 µM (inactive)	> 100 µM (inactive)	> 100 µM (inactive)		> 100 µM (inactive)	> 100 µM (inactive)	> 100 µM (inactive)	> 100 µM (inactive)	> 100 µM (inactive)	> 100 µM (inactive)	> 100 µM (inactive)	
